This is an account of results in PubChem BioAssay (NCI).

Where “and” joins values, the source holds several entries; their conditions need not be identical. Equal entries are not always repeated.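 Compound exposure: 48 hours, 5 concentrations, 96-well plates. GI50 marks 50% less growth. TGI marks complete inhibition of growth.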 Some results are limits rather than exact numbers.

Common to all, as to test: inhibition of tumour cell growth, NCI panel, 48 h
For assay [1], the system named is NCI-H226 lung.
Assay [2] deals with RXF 393 renal.
Assay [3] relates to LOX IMVI melanoma.
In assay [4] the test system is OVCAR-8 ovarian.
The subject of assay [5] is MALME-3M melanoma.
In assay [6] the test system is NCI-H460 lung.
Assay [7] concerns OVCAR-3 ovarian.
Assay [8] has as its system TK-10 renal.
Assay [9] has as its system HOP-62 NSCLC.
Assay [10] relates to SF-539 CNS.

Consider `COc1ccc(C2CC(C)=Nc3c([nH]c(=S)[nH]c3=O)N2)cc1` (stereo not given), for which the TGI in assay [1] was 44.6 µM; in assay [2], 34.7 µM; in [3], 34.4 µM; in assay [4], 35.7 µM; in assay [5] it was over 100 µM; in assay [6], 33.3 µM. Moreover, the TGI was 55.2 µM in assay [7], 58.1 µM in assay [8], 68.5 µM in assay [9] and 50.8 µM in assay [10].
For the molecule `CC12CC(=O)NN=C1c1ccccc1C2` (stereo not given), the TGI in assay [1], in assay [2], in assay [3], in [4], in [5] and in assay [6] was over 100 µM throughout. The TGI in [7], in [8], in assay [9] and in [10] was over 100 µM each time.
`CCc1ccc(/C=C2/SC(=S)NC2=O)cc1`: the GI50 in [1] was 20.3 µM; in [2] it was 18.9 µM; in assay [3], 22.4 µM; in [4] it was 25.9 µM; in assay [5], 23.2 µM; in assay [6], 20.7 µM. Further, the GI50 was 16.9 µM in [7], 23.4 µM in assay [8], 25.7 µM in assay [9] and 21 µM in assay [10]. Besides, the TGI in assay [1] was 71.3 µM; in [2] it was 55.7 µM; in assay [3], over 71.5 µM; in assay [4], over 88.8 µM; in [5], over 80.6 µM; in assay [6] it was 54.8 µM. Besides, the TGI is 35.3 µM in assay [7], over 85.4 µM in assay [8], 78.2 µM in assay [9] and 56.6 µM in assay [10].
With `O=C(O)CCN1C(=O)/C(=C/C(Cl)=C/c2ccccc2)SC1=S`, the GI50 in [1] was 6.46 µM; in assay [2], 1.69 µM; in assay [3], 1.5 µM; in [4], 3.27 µM; in assay [5], 2.22 µM; in assay [6], 3.21 µM. For the same molecule, the GI50 in assay [7] is 2.41 µM; in assay [8] it was 4.19 µM; in [9], 3.74 µM; in assay [10], 2.67 µM. Moreover, the TGI in [1] is 95.9 µM; in assay [2], 3.38 µM; in [3], 3.04 µM; in [4], 22.2 µM; in [5], 5.23 µM; in assay [6] it was 10.8 µM. Moreover, the TGI in assay [7] was found to be 7.01 µM; in assay [8] it was 9.59 µM; in assay [9], 13.3 µM; in assay [10], 7.12 µM.
On to `O=C(O)C(O)C(O)C1[O][Sb][O]C1CO` (stereo not given), for which the GI50 is over 100 µM in assay [1]; over 100 µM in [2]; over 100 µM in [3]; over 100 µM in assay [4]; 23.6 µM and 7.62 µM in assay [5]; over 100 µM in [6]. For the same molecule, the GI50 in assay [7], in [8], in assay [9] and in assay [10] was over 100 µM in each case. Besides, the TGI was over 100 µM in assay [1]; over 100 µM in assay [2]; over 100 µM in assay [3]; over 100 µM in assay [4]; 68.3 µM and 23.6 µM in assay [5]; over 100 µM in [6]. Besides, the TGI in assay [7], in assay [8], in assay [9] and in assay [10] was over 100 µM in each case.
As for `NC(=O)Cn1c(=O)[nH]c(=O)c2[nH]cnc21`, the TGI in [1], in assay [2], in assay [3], in assay [4], in assay [5] and in assay [6] was over 100 µM in each case. Further, the TGI in assay [7], in assay [8], in assay [9] and in assay [10] was over 100 µM each time.
On to `CCOc1ccc(N2C(N)=NC(N)=NC2(C)C)cc1`, for which the GI50 in assay [1] is over 100 µM; in assay [2] it was over 100 µM; in assay [3], 45.8 µM; in [4], 62.3 µM; in assay [5] it was 56.4 µM; in [6], 39.8 µM. Besides, the GI50 in [7] is over 100 µM; in assay [8], over 100 µM; in [9], 95 µM; in [10], 28.6 µM. In addition, the TGI in assay [1], in assay [2], in assay [3], in assay [4], in assay [5] and in [6] was over 100 µM each time. Also, the TGI in assay [7], in assay [8], in [9] and in assay [10] was over 100 µM in each case.
